# PMC12459020, “Chemical Probes that Target a Dissociative LuxR-Type Quorum Sensing Receptor in Gram-Negative Bacteria” (ACS Chemical Biology, 2025)
# pEC50: −log10 of the molar value.
# Tests used:
# EsaR [1] = target: T1, EsaR (Pantoea stewartii subsp. stewartii, UniProt P54293); assay: cell-based
# T1 construct: expressed in transfected cells; host or cells: E. coli JLD271 (K12 ΔsdiA), arabinose-induced pJN105-esaR
# Method in brief: (§1)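 E. coli carrying arabinose-induced esaR plus pesaS (activated) or pesaR (repressed) promoter fused to lux or GFP; P. stewartii ESN51 GFP reporters also used.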
# EsaR [2] = target: T1, EsaR; assay: cell-based; remark: listed apart in the source
# Method in brief: as §1
# EsaR [3] = target: T1, EsaR; assay: P. stewartii ESN51 (ΔesaI) GFP reporter with EsaR-activated promoter (pesaS); assay type: cell-based
# Excerpt: (§2) EsaR transcriptional activation and repression were examined using E. coli and P. stewartii reporters (strains and plasmids listed in Table S1; see Methods section for assay details). […] We constructed reporters in E. coli based on previously reported EsaR reporters (Table S1). Each strain contained an EsaR expression plasmid (pJN105-esaR) and a reporter plasmid with either an EsaR-activated promoter (pesaS) or an EsaR-repressed promoter (pesaR) upstream of luxABCDE or GFP.
# (§3) Gibson assembly was used to create all constructs. Plasmid pJN105-esaR was created by amplifying esaR from pAC-esaR and inserting it into pJN105. pesaSlux was created by inserting pesaS, amplified from pPesaR-AC:gfp, into the pCS-pesaRlux backbone. The pesaR promoter was amplified from pCS-pesaRlux and inserted into the pPesaR-AC:gfp backbone to create pesaR:GFP. P. stewartii reporter strains were created by transforming pesaR:GFP or pPesaR-AC:gfp into ESN51 by conjugation using E. coli S17 λpir as the donor strain. See SI for details of E. coli ExpR2 reporter construction.
# (§4) Compound stocks were prepared and plated as described for E. coli reporter assays. […] Cultures were diluted to an OD600 of 0.05, and 198 μL was added to each well of a clear-bottom, black 96-well plate and incubated for 6 h at 28 °C (200 rpm) before reading fluorescence and OD600.
# EsaR [4] = target: T1, EsaR; assay: P. stewartii ESN51 (ΔesaI) GFP reporter with EsaR-repressed promoter (pesaR); assay type: cell-based
# Excerpt: as §2, §3, §4
# P. stewartii ESN51 = assay type: cell-based, Pantoea stewartii; conditions: OD600; 100 µM–1 mM tested
# Excerpt: We were curious whether the EsaR agonists identified in the E. coli reporters were also active in EsaR’s native host organism. In past studies, some E. coli LuxR-type receptor reporters have yielded EC50 values for exogenous ligands that differ by orders of magnitude relative to reporters constructed in native bacteria. Overexpression of LuxR-type receptors in E. coli has been proposed to lead to increased DNA binding and an overestimation of associative receptor sensitivity to agonists, as measured with lower EC50 values. However, because dissociative LuxR-type receptors bind to DNA in the absence of ligand, high receptor expression could instead lead to an underestimate of agonism. To account for any unintended effects of the E. coli genetic background and test compound activity at native levels of EsaR, we created genetic reporters in P. stewartii (see above and Methods section for details).
# Supporting Information — Stoutland et al. […]
# interesting that constitutive activituy (uninduced) from pesaR promoter is so much 2 4 6 […]
# ESN51 pesaR-AC:GFP ESN51 pesaR:GFP
# Figure S1. Luminescence inhibition, dynamic range, and growth of reporter strains. […]
# (also on this page, place not known: 102 104 106 percent activation (GFP/OD600 - JLD)/3OC6 Normalized luminescence ✱✱✱✱✱✱✱✱ controls GFP/OD600 pesaS OD600 GAF 0.3 0.4 OD600 1mM 300µM)
# [5] = Solubility remark on supplementary figure page; assay type: physicochemical; conditions: stray annotation on SI page 6
# T1 sequence (P54293 whole entry): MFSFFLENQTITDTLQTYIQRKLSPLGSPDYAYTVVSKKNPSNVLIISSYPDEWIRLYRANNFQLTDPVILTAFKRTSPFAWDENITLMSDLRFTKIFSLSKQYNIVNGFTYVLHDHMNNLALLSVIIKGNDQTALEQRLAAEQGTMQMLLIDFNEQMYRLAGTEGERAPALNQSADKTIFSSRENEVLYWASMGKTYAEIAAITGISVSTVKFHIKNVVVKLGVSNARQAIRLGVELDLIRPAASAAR
SMILES,pEC50 (EsaR [1]),pEC50 (EsaR [2]),pEC50 (EsaR [3]),pEC50 (EsaR [4]),growth inhibition in P. stewartii ESN51 reporters (P. stewartii ESN51),"EsaR agonism at 100 μM (bound stated in text) (EsaR [2]; 100 μM, E. coli EsaR reporter)",solubility remark [5]
O=C1OCC[C@@H]1NS(=O)(=O)c1ccc(Br)cc1 [GAF 35],4.64,4.64,4.62,4.57,Growth inhibition,–,–
O=C(N[C@H]1CCOC1=O)c1ccc(Cl)c(Cl)c1 [GAF 58],–,–,–,–,–,less than 50%,slighly insoluble
"O=C1OCC[C@@H]1NS(=O)(=O)c1ccc(Cl)c(F)c1 [GAF 64, 3-F, 4-Cl BSHL]",–,–,5.57,5.17,Growth inhibition,–,–
